Where “and” joins values, the source holds several entries; their conditions need not be identical. Equal values may be shown once.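 1) Cells in 96-well plates. 2) Compound, 48 h, 5 concentrations. 3) Linear interpolation between surrounding doses. 4) Unreached endpoint = highest concentration. At the GI50, growth is halved.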 Calls of active or inactive are those of the source. Rule as the data show it: active = GI50 up to about 1.1 µM and inactive = higher.
Legend:
Assay in all cases: NCI tumour cell line growth inhibition, 48 h
[1] = tested on: A498
[2] = tested on: OVCAR-3
[3] = tested on: MDA-MB-231
[4] = tested on: CCRF-CEM
[5] = tested on: LOX IMVI
[6] = tested on: SW-620
[7] = tested on: KM12
[8] = tested on: SF-268
[9] = tested on: EKVX
[10] = tested on: BT-549
[11] = tested on: IGROV-1
[12] = tested on: U-251
[13] = tested on: Hs-578T
[14] = tested on: HT-29
[15] = tested on: UACC-62
[16] = tested on: OVCAR-5
[17] = tested on: CAKI-1
[18] = tested on: UO-31
[19] = tested on: A549
[20] = tested on: NCI-H522
[21] = tested on: TK-10
[22] = tested on: NCI/ADR-RES
[23] = tested on: RPMI-8226
[24] = tested on: NCI-H23
[25] = tested on: Malme-3M
[26] = tested on: M14
[27] = tested on: SK-MEL-5
[28] = tested on: PC-3
[29] = tested on: RXF 393
[30] = tested on: ACHN
[31] = tested on: SK-OV-3
[32] = tested on: NCI-H226
[33] = tested on: MDA-MB-435
[34] = tested on: SK-MEL-28
[35] = tested on: NCI-H460
[36] = tested on: HOP-62
[37] = tested on: K562
[38] = tested on: DU-145
[39] = tested on: COLO 205
[40] = tested on: HCT-15
[41] = tested on: SF-295
[42] = tested on: 786-0
[43] = tested on: OVCAR-4
[44] = tested on: HCT-116
[45] = tested on: HL-60
[46] = tested on: UACC-257
[47] = tested on: SN12C
[48] = tested on: OVCAR-8
[49] = tested on: SK-MEL-2
[50] = tested on: SNB-19
[51] = tested on: HCC 2998
[52] = tested on: HOP-92
[53] = tested on: SR
[54] = tested on: SF-539
[55] = tested on: SNB-75
[56] = tested on: MCF7
[57] = tested on: T47D
[58] = tested on: MOLT-4

CC1CC(N2CCOCC2)=Nc2ccccc2N1Cc1ccccc1 (stereo not given)
GI50 [1]: 20.5 µM (inactive) | GI50 [2]: 43.9 µM (inactive) | GI50 [3]: > 100 µM (inactive) | GI50 [4]: > 100 µM (inactive) | GI50 [5]: 43.9 µM (inactive) | GI50 [6]: > 100 µM (inactive) | GI50 [7]: 68.7 µM (inactive) | GI50 [8]: 74 µM (inactive) | GI50 [9]: 90.6 µM (inactive) | GI50 [10]: 66.2 µM (inactive) | GI50 [11]: 25.6 µM (inactive) | GI50 [12]: > 100 µM (inactive) | GI50 [13]: 34.4 µM (inactive) | GI50 [14]: 38.7 µM (inactive) | GI50 [15]: 44.6 µM (inactive) | GI50 [16]: > 100 µM (inactive) | GI50 [17]: 25.2 µM (inactive) | GI50 [18]: > 100 µM (inactive) | GI50 [19]: > 100 µM (inactive) | GI50 [20]: 46.5 µM (inactive) | GI50 [21]: > 100 µM (inactive) | GI50 [22]: 73.8 µM (inactive) | GI50 [23]: 48.2 µM (inactive) | GI50 [24]: > 100 µM (inactive) | GI50 [25]: 19 µM (inactive) | GI50 [26]: > 100 µM (inactive) | GI50 [27]: 36.3 µM (inactive) | GI50 [28]: 50.6 µM (inactive) | GI50 [29]: 16.1 µM (inactive) | GI50 [30]: > 100 µM (inactive) | GI50 [31]: 61.2 µM (inactive) | GI50 [32]: 51.2 µM (inactive) | GI50 [33]: 56.2 µM (inactive) | GI50 [34]: 49.1 µM (inactive) | GI50 [35]: > 100 µM (inactive) | GI50 [36]: 58.1 µM (inactive) | GI50 [37]: 19 µM (inactive) | GI50 [38]: > 100 µM (inactive) | GI50 [39]: 30.9 µM (inactive) | GI50 [40]: > 100 µM | GI50 [41]: 57.7 µM (inactive) | GI50 [42]: > 100 µM (inactive) | GI50 [43]: 56.2 µM (inactive) | GI50 [44]: > 100 µM (inactive) | GI50 [45]: 29.8 µM (inactive) | GI50 [46]: 38.3 µM (inactive) | GI50 [47]: > 100 µM (inactive) | GI50 [48]: 88.5 µM (inactive) | GI50 [49]: > 100 µM (inactive) | GI50 [50]: > 100 µM (inactive)

CC(=O)OC[C@H]1O[C@@H](O[C@H]2[C@H](OC(C)=O)C=CO[C@@H]2COC(C)=O)C(OC(C)=O)[C@H]2OC(C)(C)O[C@H]21 (stereo not given in full)
GI50 [2]: > 100 µM (inactive) | GI50 [3]: > 100 µM (inactive) | GI50 [4]: 62.8 µM (inactive) | GI50 [5]: > 100 µM (inactive) | GI50 [6]: 64.3 µM (inactive) | GI50 [7]: > 100 µM (inactive) | GI50 [8]: > 100 µM (inactive) | GI50 [9]: > 100 µM (inactive) | GI50 [10]: 36.6 µM (inactive) | GI50 [11]: > 100 µM (inactive) | GI50 [12]: > 100 µM (inactive) | GI50 [13]: 32.1 µM (inactive) | GI50 [14]: > 100 µM (inactive) | GI50 [15]: > 100 µM (inactive) | GI50 [51]: > 100 µM (inactive) | GI50 [16]: > 100 µM (inactive) | GI50 [17]: > 100 µM (inactive) | GI50 [18]: > 100 µM (inactive) | GI50 [19]: > 100 µM (inactive) | GI50 [20]: 17.1 µM (inactive) | GI50 [21]: > 100 µM (inactive) | GI50 [22]: > 100 µM (inactive) | GI50 [24]: > 100 µM (inactive) | GI50 [25]: > 100 µM (inactive) | GI50 [26]: > 100 µM (inactive) | GI50 [27]: 58.9 µM (inactive) | GI50 [28]: > 100 µM (inactive) | GI50 [29]: 2.43 µM (inactive) | GI50 [30]: > 100 µM (inactive) | GI50 [31]: > 100 µM (inactive) | GI50 [32]: > 100 µM (inactive) | GI50 [52]: 52.8 µM (inactive) | GI50 [33]: 48.1 µM (inactive) | GI50 [34]: > 100 µM (inactive) | GI50 [35]: > 100 µM (inactive) | GI50 [53]: 43.3 µM (inactive) | GI50 [36]: > 100 µM (inactive) | GI50 [54]: > 100 µM (inactive) | GI50 [37]: > 100 µM (inactive) | GI50 [39]: > 100 µM (inactive) | GI50 [40]: > 100 µM | GI50 [41]: > 100 µM (inactive) | GI50 [42]: > 100 µM (inactive) | GI50 [43]: > 100 µM (inactive) | GI50 [44]: > 100 µM (inactive) | GI50 [46]: > 100 µM (inactive) | GI50 [47]: > 100 µM (inactive) | GI50 [48]: > 100 µM (inactive) | GI50 [55]: 30.5 µM (inactive) | GI50 [56]: > 100 µM (inactive) | GI50 [57]: 64.4 µM (inactive) | GI50 [58]: > 100 µM (inactive) | GI50 [50]: > 100 µM (inactive)

CC(=O)NC1(C(=O)N[C@@H](Cc2ccccc2)C(=O)NC2CCCCC2)Cc2ccc3ccccc3c2-c2c(ccc3ccccc23)C1
GI50 [1]: 14.6 µM (inactive) and 21.2 µM (inactive) | GI50 [4]: 5.18 µM (inactive) and 3.47 µM (inactive) | GI50 [5]: 53.2 µM (inactive) and 50.5 µM (inactive) | GI50 [6]: 17.8 µM (inactive) and 25.3 µM (inactive) | GI50 [10]: 8.97 µM (inactive) and 15.2 µM (inactive) | GI50 [12]: 9.53 µM (inactive) and 5.89 µM (inactive) | GI50 [13]: > 100 µM (inactive) | GI50 [14]: 6.37 µM (inactive) and 4.84 µM (inactive) | GI50 [51]: 6.73 µM (inactive) and 4.54 µM (inactive) | GI50 [17]: 26.7 µM (inactive) and 15.6 µM (inactive) | GI50 [22]: 3.94 µM (inactive) and 6.82 µM (inactive) | GI50 [30]: 4.06 µM (inactive) and 7.73 µM (inactive) | GI50 [52]: 48.6 µM (inactive) and 32 µM (inactive) | GI50 [35]: 6.17 µM (inactive) and 3.41 µM (inactive) | GI50 [53]: 14.7 µM (inactive) and 12.6 µM (inactive) | GI50 [40]: 6.61 µM and 3.9 µM | GI50 [42]: 8.95 µM (inactive) and 8.73 µM (inactive) | GI50 [44]: 4.48 µM (inactive) and 6.7 µM (inactive) | GI50 [45]: 5.02 µM (inactive) and 3.49 µM (inactive) | GI50 [49]: 15.3 µM (inactive) and 7.89 µM (inactive) | GI50 [56]: 3.03 µM (inactive) and 5.48 µM (inactive) | GI50 [57]: 4.55 µM (inactive) and 5.27 µM (inactive)

From ChEMBL document CHEMBL1201862, “PubChem BioAssay data set” (2004)
